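The compound was tested at five concentrations on cells cultured in 96-well plates, with a 48-hour exposure period. TGI: concentration producing complete growth inhibition.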
Tests used:
Test in all cases: NCI tumour cell line growth inhibition, 48 h
[1] = system: KM12 colon
[2] = system: SW-620 colon
[3] = system: HCT-15 colon
[4] = system: TK-10 renal
[5] = system: NCI-H226 lung
[6] = system: RPMI-8226 leukemia
[7] = system: CAKI-1 renal
[8] = system: EKVX NSCLC
[9] = system: SF-268 CNS
[10] = system: SN12C renal
[11] = system: SK-MEL-2 melanoma
[12] = system: MALME-3M melanoma
[13] = system: SK-OV-3 ovarian
[14] = system: CCRF-CEM leukemia
[15] = system: K-562 leukemia
[16] = system: A549 NSCLC
[17] = system: SNB-19 CNS
[18] = system: UO-31 renal
[19] = system: HCC-2998 colon
[20] = system: LOX IMVI melanoma

Measured: TGI

COC(=O)[C@@H]1C[C@]2(Br)c3ccccc3N(S(=O)(=O)c3ccccc3)[C@@H]2N1C(=O)OC
not listed: [20]
> 100 µM: all other assays above

Cc1oc2nc(N(C)C)nc(NN)c2c1C
not listed: [12] | [13] | [20]
> 100 µM: all other assays above

Cc1nn(C(=O)Cc2ccccc2)c2c1C(c1ccc([N+](=O)[O-])cc1)SC(N)=N2 (stereo not drawn)
not listed: [5] | [11] | [17] | [18]
> 100 µM: all other assays above

CCCCc1nc(C)oc1C(C)C
not listed: [6] | [11] | [17]
> 100 µM: all other assays above

CC(C)=NOC(=O)OC[C@H]1O[C@@H](n2cnc3c(N)ncnc32)C(O)C1O (stereo partly drawn)
not listed: [7]
> 100 µM: all other assays above

Cn1ccc(=NS(=O)(=O)c2ccccc2)cc1
not listed: [3] | [5] | [7] | [10]
> 100 µM: all other assays above

COC(=O)/C(=N\NC(N)=O)C(C#N)c1ccccc1 (stereo not drawn)
not listed: [7]
> 100 µM: all other assays above

COc1ccc([Se][Se]c2ccc(OC)cc2OC)c(OC)c1
6.96 µM: [6]
20.8 µM: [11]
14.6 µM: [1]
21 µM: [17]
5.29 µM: [14]
18.6 µM: [7]
4.97 µM: [9]
33.2 µM: [12]
4.33 µM: [3]
5.31 µM: [18]
> 100 µM: [16] | [19]
7.94 µM: [15]
76.5 µM: [13]
7.71 µM: [5]
16.3 µM: [4]
7.04 µM: [2]

O=C1CCCCCCCCCCC1CN1CCOCC1 (stereo not drawn)
not listed: [7] | [11] | [20]
> 100 µM: all other assays above

C=CCCCN1CCCCC1=S
not listed: [7] | [9]
> 100 µM: all other assays above

COc1cccc(C=O)c1[O-].COc1cccc(C=O)c1[O-].[Zn+2]
90.7 µM: [18]
not listed: [7]
> 100 µM: all other assays above

N#Cc1ccc(OCCSCCCCCCCCCCSCCOc2ccc(C#N)cc2)cc1
not listed: [7] | [17]
> 100 µM: all other assays above

Cc1cc2c(=O)c(C)n[nH]c2c(C#N)c1C
not listed: [1] | [7] | [11] | [15]
> 100 µM: all other assays above

NNC(=O)CC(=O)Nc1ccc(S(=O)(=O)c2ccc(NC(=O)CC(=O)NN)cc2)cc1
not listed: [12] | [20]
> 100 µM: all other assays above

CN1N=C2c3ccccc3OC(c3ccccc3)[C@H]2C1c1ccccc1 (stereo partly drawn)
78.3 µM: [12]
not listed: [7]
> 100 µM: all other assays above

O=S1(=O)c2ccccc2N2C(c3ccccc3)=NOC2(c2ccccc2)CC1c1ccc(Br)cc1 (stereo not drawn)
not listed: [6] | [7]
> 100 µM: all other assays above

CN(C)/C=C/c1c2c(nc3ccccc13)C(=O)c1cccnc1C2=O
1.95 µM: [17]
4.1 µM: [11]
2.26 µM: [12]
9.28 µM: [14]
6.27 µM: [6]
1.48 µM: [2]
22.9 µM: [8]
2.57 µM: [10]
1.16 µM: [13]
2.59 µM: [16]
4.02 µM: [9]
2.6 µM: [19]
4.03 µM: [4]
1.07 µM: [3]
3.02 µM: [18]
3.75 µM: [15]
> 38.7 µM: [7]
1.56 µM: [1]

COc1ccc(/C=C2/SC(=Nc3ccccc3)N(NC(=O)Cc3ccccc3)C2=O)c(OC)c1
not listed: [7] | [12] | [20]
> 100 µM: all other assays above

COC(=O)CCC(=O)c1ccc2c(c1)CC1(C2)Cc2ccc(C(=O)CCC(=O)OC)cc2C1
61 µM: [11]
not listed: [2] | [5] | [7] | [9] | [17]
> 100 µM: all other assays above

C/C=C\C(CC(=O)NCCC1CN(C(=O)OCc2ccccc2)c2ccccc21)CC(=O)OC (stereo not drawn)
not listed: [5] | [10] | [20]
> 100 µM: all other assays above

O=C1c2cn[nH]c2N=C(Nc2ccccc2)C1N=Cc1ccc([N+](=O)[O-])cc1 (stereo not drawn)
not listed: [2] | [3] | [6] | [7] | [11] | [13]
> 10 µM: all other assays above

CCN(CC)CCCNc1n[n+]([O-])c2ccccc2[n+]1[O-]
21.5 µM: [11]
85.6 µM: [5]
39.7 µM: [16]
39 µM: [4]
27.9 µM: [10]
31.5 µM: [3]
15.7 µM: [19]
23.3 µM: [6]
76.1 µM: [15]
25.3 µM: [12]
63 µM: [1]
not listed: [8] | [13] | [20]
> 100 µM: all other assays above

COC(=O)N/N=C(\C)CC(=O)Nc1cccc([N+](=O)[O-])c1
not listed: [3] | [7] | [10] | [17]
> 100 µM: all other assays above

COc1ccccc1/C=N/Nc1nnc2c3ccccc3c3ncccc3c2n1
78 µM: [14]
not listed: [5]
> 100 µM: all other assays above

COc1ccc(-c2cc(=O)c3cc(Cl)ccc3[nH]2)cc1
not listed: [3] | [7] | [11] | [16]
> 100 µM: all other assays above

O=C1NC2(CCCC2)C2CCCCC12O (stereo not drawn)
not listed: [5] | [19]
> 100 µM: all other assays above

O=C(O[C@H]1[C@@H]2C=CO[C@@H](OC3OC(CO)C(O)C(O)C3O)[C@@H]2[C@@]2(CO)O[C@@H]12)c1ccc(O)c(O)c1 (stereo partly drawn)
not listed: [3] | [5]
> 100 µM: all other assays above

Source: PubChem BioAssay (NCI)
